Experimental data as given in patent publication EP4733297A1, “INTEGRIN-INHIBITING SMALL MOLECULE COMPOUND” (Antibody Therapeutics, Inc., priority 2023, dated 2024).

Assays:
[1] = system: interstitial pneumonia; settings: reported July 2022; cited from earlier work
[2] = system: carbon tetrachloride (CCl4) administration model; assay: 15-day administration experiment in carbon tetrachloride (CCl4) administration model (therapeutic); type: in vivo, mice; settings: oral 5 mg/kg twice per day, 5 days per week, from week 4 of 6 weeks of CCl4
Experimental: In this Example, over a period of 6 weeks, carbon tetrachloride (CCl4) for inducing fibrosis in the liver was administered to mice, and the compound of the present invention (IBF-17) was administered for a total of 15 days over 3 weeks in the latter half of the test, and the state of tissue fibrosis was observed. While Example 4 is examination of a prophylactic effect in which the compound is administered from the start of the test, this Example is examination of a therapeutic effect in which the compound is administered after 3 weeks have passed since administration of carbon tetrachloride (in a state where liver fibrosis has occurred). Specifically, to mice, carbon tetrachloride (diluted 4-fold with olive oil) was intraperitoneally administered at 1 mL/kg twice per week (for example, Monday and Friday, or Tuesday and Friday) for a total of 6 weeks. From week 4 of the start of the test, IBF-17 was orally administered at 5 mg/kg twice per day (with an interval of 8 hours) for 5 days per week (Monday to Friday). After completion of the experiment, the liver was collected and the amount of collagen was quantified by hydroxyproline measurement.

[3] = system: rat lung-derived fibroblasts; assay: Differentiation of fibroblasts into myofibroblasts, α-SMA western blotting; type: cell-based; settings: TGFβ stimulation 96 hours
Experimental: In this Example, the effect of IBF-17, which is a compound of the present invention, on differentiation of fibroblasts into myofibroblasts was examined. The medium was replaced with a serum-free medium, and rat lung-derived fibroblasts isolated in Example 2 were cultured for 24 hours. After culturing, IBF-17 was added so as to give final concentrations of 2, 20 nM, or 200 nM, and C8 was added so as to give final concentrations of 2, 20, or 200 nM, followed by reaction for 2 hours. After the reaction, recombinant human TGFβ1 was added so as to give a final concentration of 5 ng/mL, and stimulation was carried out for 96 hours to induce differentiation into myofibroblasts. After induction of differentiation, protein was extracted from the cells and western blotting was performed, a band of α-SMA, which is a differentiation marker, was detected, and the band was quantified as a relative band intensity with respect to glyceraldehyde-3-phosphate dehydrogenase (GAPDH), which is a control.
From this Example, differentiation of fibroblasts into myofibroblasts (by […] TGFβ) was evaluated using α-smooth muscle actin as marker.

[4] = system: bleomycin administration model; assay: 10-day administration experiment in bleomycin administration model; type: in vivo, mice; settings: oral 5 mg/kg twice per day, 5 days per week, from 1 week after bleomycin
Experimental: In this Example, to mice administered with bleomycin for inducing fibrosis in the lung, the compound of the present invention (IBF-17) was administered for a total of 10 days over a period of 2 weeks from 1 week after bleomycin administration, and the state of tissue fibrosis was observed.
Specifically, under deep anesthesia, the neck of mice was incised, bleomycin (diluted with physiological saline) was intratracheally administered once at 1.5 U/kg, and the neck was sutured. From 1 week after bleomycin administration (the time when fibrosis begins to occur), IBF-17 was orally administered at 5 mg/kg twice per day (with an interval of 8 hours) for 5 days per week (Monday to Friday). After completion of the experiment, the lung was collected and expression of fibrosis-related genes (Acta2, Col1a1, Col3a1, and Tnc) was analyzed by qPCR. Further, lung sections were prepared, collagen was stained by Masson-trichrome staining, and the fibrotic area was quantified.

[5] = system: NASH model; assay: 8-week administration experiment in NASH model (CDAHFD diet); type: in vivo, mice; settings: oral, 8 weeks
Experimental: In this Example, over a period of 8 weeks, while providing mice with CDAHFD (choline-deficient amino acid-restricted high-fat diet), compounds of the present invention (IBF-17, IBF-18, and IBF-20) were administered, and the state of tissue fibrosis was observed. More specifically, mice were fed with a special diet CDAHFD (Research Diets) for inducing a human NASH-like pathological condition for a total of 8 weeks, replacing with new diet twice per week (for example, Monday and Friday, or Tuesday and Friday). Throughout the entire test period, IBF-17, IBF-18, or IBF-20 was orally administered daily at 1, 3, or 10 mg/kg twice per day (with an interval of 8 hours). After completion of the experiment, the amount of collagen in the liver was quantified by hydroxyproline measurement, and, for IBF-17, in addition to staining specimens with Sirius red, which specifically stains collagen, to quantify the fibrotic area, expression of genes regarded as fibrosis markers (Acta2, Col1a1, and Timp-1) was analyzed by qPCR. In addition, body weight of each mouse during the feeding period (CDAHFD temporarily decreases at the initial stage of feeding) was measured, and the weight of the collected liver was measured.

[6] = system: TGFβ activation by integrin expressed in lung fibroblasts; assay: Effect on TGFβ activation: luciferase reporter coculture of lung fibroblasts and CCL64 reporter cells; type: cell-based, male Wistar rats
Experimental: In this Example, lung fibroblasts were used as integrin-expressing cells, and the effect of IBF-17, which is a compound of the present invention, on TGFβ activity was examined. Fibroblasts isolated from lungs of male Wistar rats and cultured for 7 days were seeded at 2×10^3 cells per well and incubated for 5 days. After 5 days, IBF-17 or C8 (a known αvβ1 inhibitor) was added so as to give final concentrations of 2, 20, or 200 nM, and 2 hours thereafter, TGFβ-responsive luciferase-producing reporter cells CCL64 were seeded at 2×10^4 cells and cocultured for 18 hours. After that, the cells were lysed, luciferase assay reagent (Promega Corporation) was added, and luciferase activity was measured using a luminometer. The structure of C8, which is a known αvβ1 inhibitor, is as follows. [drawing 43]

[7] = system: unilateral ureteral obstruction (UUO) model; assay: 10-day administration experiment in unilateral ureteral obstruction (UUO) model; type: in vivo, mice; settings: kidney, 10 days after ligation; subcutaneous 1 or 5 mg/kg twice per day for 9 days
Experimental: In this Example, over a period of 10 days, the compound of the present invention (IBF-17) was administered to mice in which the ureter on one side was ligated, and the state of tissue fibrosis was observed. More specifically, mice under deep anesthesia were laparotomized, and two sites of the left ureter were ligated using a nylon thread, and the abdomen was sutured. From 1 day after ligation, IBF-17 was subcutaneously administered daily at 1 or 5 mg/kg twice per day (with an interval of 8 hours) for 9 days. At 10 days after ligation, the kidney was collected and expression of genes regarded as fibrosis markers (Acta2, Col1a1, Col3a1, Ddr2, Tgfb1, Tnc, Trpc6, and Loxl1) was analyzed by qPCR.

[8] = system: carbon tetrachloride (CCl4) administration model; assay: 3-day administration experiment in carbon tetrachloride (CCl4) administration model; type: in vivo, mice; settings: liver, 72 hours after CCl4; subcutaneous 1 mg/kg twice per day
Experimental: In this Example, carbon tetrachloride (CCl4) for inducing fibrosis in the liver was administered once to mice, and thereafter, the compound of the present invention (IBF-17) was administered for 3 days, and then the liver was collected and observed. More specifically, carbon tetrachloride (diluted 4-fold with olive oil) was intraperitoneally administered once at 2 mL/kg to mice that had been fasted for half a day from the day before the test. IBF-17 was subcutaneously administered daily at 1 mg/kg twice per day (with an interval of 8 hours), including the day of carbon tetrachloride administration. At 72 hours after carbon tetrachloride administration, the mice were dissected and the liver was collected, and expression of fibrosis marker genes (Acta2, Col1a1, Col3a1, Tgfb1, Loxl1, and Ddr2) was analyzed by qPCR.

[9] = system: carbon tetrachloride (CCl4) administration model; assay: 8-week administration experiment in carbon tetrachloride (CCl4) administration model; type: in vivo, mice; settings: oral, 8 weeks
Experimental: In this Example, over a period of 8 weeks, carbon tetrachloride (CCl4) for inducing fibrosis in the liver and compounds of the present invention (IBF-17, IBF-18, and IBF-20) were administered to mice, and the state of tissue fibrosis was observed.
To mice, carbon tetrachloride (diluted 4-fold with olive oil) was intraperitoneally administered at 1 mL/kg twice per week (for example, Monday and Friday, or Tuesday and Friday) for a total of 8 weeks. Throughout the entire test period, IBF-17, IBF-18, or IBF-20 was orally administered daily at 1 or 10 mg/kg twice per day (with an interval of 8 hours). After completion of the experiment, the liver was collected, and the amount of collagen was quantified by hydroxyproline measurement, and a specimen was stained with Sirius red to quantify the fibrotic area. In addition, expression of fibrosis markers, Col1a1 and Acta2 (α-SMA) genes, was analyzed by qPCR.

[10] = liver, 1 or 10 mg/kg twice per day

COCCN(CCCCc1ccc2c(n1)NCCC2)CC[C@H](Nc1ncnc2ccccc12)C(=O)O [PLN-74809]
efficacy in early Phase 2a of a clinical trial [1]: proven efficacy

O=C(O)C[C@H](NC(=O)CNC(=O)c1cc(O)cc(NC2=NCC(F)CN2)c1)c1cccc(S(F)(F)(F)(F)F)c1 (stereo partly drawn) [IBF-17, (3S)-3-(2-{3-[(5-fluoro-1,4,5,6-tetrahydropyrimidin-2-yl)amino]-5-hydroxybenzamido}acetamido)-3-[3-(pentafluorosulfanyl)phenyl]propanoic acid]
amount of hydroxyproline in mouse liver [2]: significantly decreased
inhibition of differentiation of fibroblasts into myofibroblasts (α-SMA band intensity) ([3]; 2 nM): inhibition of differentiation was observed
inhibition at 0.02 µM ([3]; Rattus norvegicus, Fibroblast, 20 nM, read-out: inhibition of differentiation of fibroblasts into myofibroblasts (α-SMA band intensity)): ≥ 80%
mRNA expression of Col1a1 (qPCR) ([4]; lung): significantly decreased
mRNA expression of Col3a1 (qPCR) ([4]; lung): significantly decreased
fibrotic area of lung (Masson-trichrome staining) [4]: significantly decreased
hydroxyproline amount of liver tissue ([5]; any dose (1, 3, and 10 mg/kg) twice per day, versus no administration): decreases in hydroxyproline amount were observed
mRNA expression of fibrosis markers (Acta2, Col1a1, Timp-1) (qPCR) ([5]; any of 1, 3, and 10 mg/kg twice per day): uniformly decreased fibrosis markers
fibrotic area in tissue specimens (Sirius red) ([5]; any of 1, 3, and 10 mg/kg twice per day, versus non-administration group): reduced the fibrotic area
activation of TGFβ (luciferase activity) ([6]; 200 nM): almost completely inhibited
activation of TGFβ (luciferase activity) ([6]; concentration range of 2 to 200 nM, coculture 18 hours): suppressed activation of TGFβ in a concentration-dependent manner
mRNA expression of Acta2 (qPCR) [7]: decreasing tendency
mRNA expression of Col1a1 (qPCR) [7]: significant decreases
mRNA expression of Col3a1 (qPCR) [7]: significant decreases
mRNA expression of Ddr2 (qPCR) [7]: significant decreases
mRNA expression of Loxl1 (qPCR) [7]: significant decreases
mRNA expression of Tgfb1 (qPCR) [7]: decreasing tendency
mRNA expression of Tnc (qPCR) [7]: decreasing tendency
mRNA expression of Trpc6 (qPCR) [7]: decreasing tendency
mRNA expression of Col1a1 (qPCR) [8]: clearly decreased
mRNA expression of Col3a1 (qPCR) [8]: clearly decreased
mRNA expression of six fibrosis markers (Acta2, Col1a1, Col3a1, Tgfb1, Loxl1, Ddr2) (qPCR) [8]: all of these markers were decreased
mRNA expression of Acta2 (qPCR) [9, 10]: tends to be decreased
mRNA expression of Col1a1 (qPCR) [9, 10]: tends to be decreased
amount of hydroxyproline in liver tissue ([9]; 1 mg/kg twice per day): showed an effect
amount of hydroxyproline in liver tissue ([9]; 1 or 10 mg/kg twice per day): decreased the amount of hydroxyproline
Sirius red-stained area of liver tissue ([9]; both 1 mg/kg and 10 mg/kg twice per day, versus non-administration group, decrease followed the dose): decreased
